From paper PMC10644342, “Improved Antibacterial Activity of 1,3,4-Oxadiazole-Based Compounds That Restrict Staphylococcus aureus Growth Independent of LtaS Function” (ACS Infectious Diseases, 2023)
In brackets after ≈: the same amount, converted by molar mass. Read-outs that look alike come from different tables or passages of the source.

Legend:
[1] = system: Pseudomonas aeruginosa strain PAO1; assay: Growth inhibition in combination with PAβN; format: cell-based; conditions: 32 μg/mL compound with 100 μg/mL PAβN
Method: Phenylalanine-arginine β-naphthylamide (PAβN) is a well-studied efflux pump inhibitor, which can also permeabilize the outer membrane of Gram-negative organisms.[40] […] Without the addition of PAβN (0 μg/mL), neither 1771 nor 13 had any growth inhibitory activity at concentrations up to 64 μg/mL. With the addition of 25 μg/mL of PAβN, the E. coli strain K12 could still grow in the presence of 64 μg/mL of 1771 or 13; however, the growth rate was severely impacted in a dose-dependent manner. […] To further evaluate the Gram-negative coverage of 1771 and 13, we also tested 1771 or 13 in combination with PAβN against Pseudomonas aeruginosa strain PAO1, Klebsiella pneumoniae strain 699 (clinical isolate), and Acinetobacter baumannii strain DF1000 (clinical isolate) (Figure S6a–c).
Figure S6. Permeabilization of the outer membrane renders Gram-negative bacteria susceptible to 1771 and compound 13. Bacterial growth curves of A) Klebsiella pneumoniae, B) Acinetobacter baumannii and C) Pseudomonas aeruginosa against 1771 and 13 (0 – 64 µg/ml) in combination with 0, 25, 50, 100 µg/ml of PAβN. The bacterial growth (OD 600nm) was […]
(1 picture or pasted object on this page, not shown here)

[2] = system: S. aureus; assay: MIC, broth microdilution (CLSI); format: cell-based, Staphylococcus aureus; conditions: for MIC: read-out: minimum inhibitory concentration; for MIC50: used for selectivity index; for MIC range against S. aureus strains: collection of S. aureus strains incl. multidrug-resistant MRSA and VRSA
Method: S. aureus, S. epidermidis, E. faecalis, and E. faecium strains were routinely cultivated on tryptic soy agar (TSA) and grown for 18 h at 37 °C. S. aureus single colonies were subsequently transferred into 2 mL of tryptic soy broth (TSB) and grown for a further 18 h at 37 °C while being shaken at 180 rpm. S. pyogenes, S. agalactiae, and S. dysgalactiae strains were routinely cultured on TSA supplemented with 5% sheep blood and grown for 18 h at 37 °C with 5% CO2. E. coli was grown in LB broth at 37 °C. For LtaS-deficient strains, TSB was supplemented with 0.5 M NaCl to provide an osmotically balanced environment and instead grown at 30 °C. For strains harboring the pRMC2 tetracycline inducible vector,[61] the growth medium was supplemented with 10 μg/mL chloramphenicol and […] anhydrotetracycline hydrochloride (Sigma). Phenylalanine-arginine β-naphthylamide (PAβN) (Sigma) was dissolved in sterile water.
B. subtilis, staphylococcal, and enterococcal strains were grown in Mueller Hinton broth (MHB), while streptococcal strains were grown in MHB supplemented with 5% laked horse blood. All strains were grown for 18 h at 37 °C. The overnight cultures were subsequently subcultured 1:200 and grown to the exponential phase (OD600nm = 0.5–0.6) in fresh broth. 1771 and its derivatives 9–14 were reconstituted in DMSO and further diluted by performing a 1:2 serial dilution ranging between 256 and 0.125 μg/mL in a 96-well microtiter plate. One hundred microliters of 0.5 McFarland standardized inoculum (approximately equal to 5 × 10^5 cfu) were then dispensed into each well in the 96-well microtiter plate. The plate was incubated for 18 h at 37 °C.

[3] = system: HepG2 human liver cancer cells; assay: HepG2 liver cell toxicity assay (MTT); format: cell-based; conditions: for IC50: Homo sapiens, 24 h incubation, MTT, concentration responsible for 50% HepG2 cell death
Method: HepG2 human liver cancer cells (ECACC: Cat no. 85011430) were grown in Dulbecco’s Modified Eagle’s Medium (DMEM; with 4.5 g/L glucose) supplemented with 10% (v/v) fetal bovine serum, 1% (v/v) minimal essential media, and 0.2% (v/v) penicillin/streptomycin/L-glutamine solution. Cells were then seeded at a concentration of 10,000 cells per well and allowed to attach and grow for 18 h. Following this, the medium was aspirated away and replaced with a medium containing a range of concentrations of 1771 and compound 13, and the cells were grown for a further 24 h. After this, cell viability was assessed using the MTT (3-[4,5-dimethylthiazol-2-yl]-2,5-diphenyltetrazolium bromide) assay. 1771 or 13 containing growth media was aspirated away and replaced with 100 μL of 1 mg/mL MTT (in growth media) and incubated for 50 min at 37 °C. Subsequently, this solution was removed, and 150 μL of isopropanol was added to the cells and allowed to incubate at RT with gentle rocking on an orbital shaker. Absorbance at abs595nm was recorded using a Sunrise plate reader, and the % cell viability was calculated compared to a no-compound control.

[4] = system: S. aureus strain SH1000; assay: Biofilm prevention, crystal violet assay; format: cell-based, Staphylococcus aureus; conditions: for concentration causing a 50% reduction in biofilm formation: SH1000, 24 h
Method: An indication of the biofilm prevention capabilities of 1771 and its derivatives 9–14 was achieved through the application of the crystal violet assay. S. aureus strain SH1000 and S. epidermidis strain RP62A were used, as they are strong biofilm formers. Overnight cultures were diluted 1:200 in fresh TSB containing 0.5% glucose (TSB-G), and 100 μL was added to individual wells in a 96-well microtiter plate. One hundred microliters of 1771 and 9–14 were diluted in TSB-G and added to bacteria at a final concentration ranging from 256 to 0.25 μg/mL with subsequent incubation for 24 h at 37 °C in a static incubator. Following incubation, biofilms were washed four times with ddH2O before being stained with 150 μL of 0.1% crystal violet for 30 min at room temperature. Following a further four washes in ddH2O, wells were resuspended in 200 μL of 7% acetic acid. The absorbance intensity of the crystal violet was measured at abs595nm in a Sunrise plate reader. Biomass formed was measured as a percentage of the no-compound control.

[5] = system: LtaS; design: method as in PMID 29300473; conditions: LtaS in artificial liposomes; cited from earlier work
[6] = Staphylococcus aureus, NEWMAN, strain Newman
[7] = Staphylococcus aureus, strain EMRSA-15
[8] = Staphylococcus aureus, strain LAC
[9] = Staphylococcus aureus, strain MRSA252
[10] = Staphylococcus aureus, strain MW2
[11] = Staphylococcus aureus, strain Mu3
[12] = Staphylococcus aureus, strain Mu50
[13] = Staphylococcus aureus, strain SH1000
[14] = Staphylococcus aureus, strain TW20

Row | SMILES | growth of PAO1 [1] | MIC [2, 6] | MIC [2, 7] | MIC [2, 8] | MIC [2, 9] | MIC [2, 10] | MIC [2, 11] | MIC [2, 12] | MIC [2, 13] | MIC [2, 14] | MIC90 ([2]; Staphylococcus aureus, against S. aureus) | MIC50 ([2]; Staphylococcus aureus) | MIC range against S. aureus strains [2] | fold increase in activity compared to 1771 ([2]; multidrug-resistant S. aureus strains) | IC50 [3] | biofilm prevention compared with 1771 ([4]; SH1000) | concentration causing a 50% reduction in biofilm formation [4] | inhibition of LtaS polymerization activity [5] | selectivity index (IC50/MIC50) ([3]; HepG2 IC50 / S. aureus MIC50)
1 | O=C(COC(=O)Cc1coc2ccc3ccccc3c12)Nc1nnc(-c2ccc(S(F)(F)(F)(F)F)cc2)o1 [Compound 13, 2-Oxo-2-((5-(4-(pentafluoro-l6-sulfaneyl)phenyl)-1,3,4-oxadiazol-2-yl)amino)ethyl 2-(Naphtho[2,1-b]furan-1-yl)acetate] | severely inhibited | 0.5 µg/mL (≈ 0.903 µM) | 0.5 µg/mL (≈ 0.903 µM) | 0.5 µg/mL (≈ 0.903 µM) | 1 µg/mL (≈ 1.81 µM) | 0.5 µg/mL (≈ 0.903 µM) | 0.5 µg/mL (≈ 0.903 µM) | 0.5 µg/mL (≈ 0.903 µM) | 0.5 µg/mL (≈ 0.903 µM) | 0.5 µg/mL (≈ 0.903 µM) | 0.5 µg/mL (≈ 0.903 µM) | 0.5 µg/mL (≈ 0.903 µM) | 0.5 to 1 µg/mL | 16- to 32 fold | 27.3 µg/mL (≈ 49.3 µM) | better than 1771 | 0.25 µg/mL |  | 
2 | O=C(COC(=O)Cc1coc2ccc3ccccc3c12)Nc1nnc(-c2ccccc2)o1 [Compound 1771, 2-Oxo-2-((5-phenyl-1,3,4-oxadiazol-2-yl)amino)ethyl 2-(Naphtho[2,1-b]furan-1-yl)acetate, reference compound] |  | 4 to 8 µg/mL (≈ 9.36 to 18.7 µM) | 8 to 16 µg/mL (≈ 18.7 to 37.4 µM) | 8 µg/mL (≈ 18.7 µM) | 8 µg/mL (≈ 18.7 µM) | 8 µg/mL (≈ 18.7 µM) | 8 to 16 µg/mL (≈ 18.7 to 37.4 µM) | 4 to 8 µg/mL (≈ 9.36 to 18.7 µM) | 4 to 8 µg/mL (≈ 9.36 to 18.7 µM) | 8 µg/mL (≈ 18.7 µM) |  | 8 µg/mL (≈ 18.7 µM) | 4 to 16 µg/mL |  | 24.7 µg/mL (≈ 57.8 µM) |  | 4 µg/mL | did not show inhibitory activity | 3.08
